Series [1] can be described thus: chemical recovery by SPE of plasma after PDMS sampling; higher = better extraction. The conditions noted are these: pooled human plasma; extraction method: HLB SPE of plasma after PES; equilibration time (d): 6.
Series [2] can be described thus: chemical recovery into PDMS from spiked human plasma; higher = better extraction. The conditions noted are these: pooled human plasma, extraction method: PES with PDMS.
Series [3] in a line: chemical recovery from spiked human plasma; higher = better extraction. The conditions noted are these: pooled human plasma.
[4] abbreviates: extraction method: SPE only (HLB 96-well).
[5] abbreviates: extraction method: SPE only (HLB 96-well), PES comparison experiment.
[6] abbreviates: extraction method: PES+SPE (3 d PDMS equilibration then HLB SPE).
[7] abbreviates: extraction method: solvent precipitation (ACN + hexane).

These results are taken from the supplement of paper PMC10702517.

± gives the standard deviation.
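Wherever chemical recovery by SPE of plasma after PDMS sampling is given: over 400 spiked chemicals quantified by LC-HRMS or GC-HRMS via internal standard calibration, recovery relative to spike mix added to unspiked plasma extract to correct matrix effects.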

With `c1ccc2c(c1)=c1ccc3c4c(ccc=2c14)=c1ccccc1=3` [Indeno(1,2,3-cd)fluoranthene], in series [1], the “chemical recovery by SPE of plasma” value was determined as 0.409 ± 0.71%. Further, the “chemical recovery into PDMS” value came to 70.5 ± 4% in series [2] (equilibration time (d): 1), 79.7 ± 9.8% in series [2] (equilibration time (d): 3) and 77.5 ± 5.2% in series [2] (equilibration time (d): 6).
In the case of `COC(=O)N(C(=O)N1CO[C@@]2(C(=O)OC)Cc3cc(Cl)ccc3C2=N1)c1ccc(OC(F)(F)F)cc1` [Indoxacarb], the chemical recovery in series [3] (setting [4]) stood at 61.3 ± 15%; in series [3] (setting [5]), 38.3 ± 8.6%. The “chemical recovery into PDMS” value in series [2] (equilibration time (d): 1) came to 52.6 ± 5.8%; in series [2] (equilibration time (d): 3) it was 52 ± 9.1%; in series [2] (equilibration time (d): 6), 53.2 ± 3.8%.
On to `CC1=CC(=O)CC(C)(C)C1` [Isophorone], for which the chemical recovery in series [3] (setting [4]) came to 0.623 ± 0.28%. The “chemical recovery into PDMS” value in series [2] (equilibration time (d): 1) was 4.8 ± 8.3%.
With `CC(=O)O[C@]1(C(C)=O)CC[C@H]2[C@@H]3C[C@H](C)C4=CC(=O)CC[C@]4(C)[C@H]3CC[C@@]21C` [Medroxyprogesteroneacetate], the chemical recovery in series [3] (setting [5]) is 44.5 ± 8.6%. The “chemical recovery into PDMS” value worked out at 41.5 ± 4.3% in series [2] (equilibration time (d): 1), 46.8 ± 1.9% in series [2] (equilibration time (d): 3) and 43.4 ± 1.5% in series [2] (equilibration time (d): 6).
With `CN(C)C(=N)NC(=N)N` [Metformin], the chemical recovery in series [3] (setting [6]) was 1.5 ± 0.32%; in series [3] (setting [4]) it was 2.12 ± 0.71%; in series [3] (setting [7]), 83.3 ± 12%. Moreover, the “chemical recovery into PDMS” value in series [2] (equilibration time (d): 6) is 0.002 ± 0.0035%.
`C[C@@H]1C[C@H]2[C@@H]3CCC4=CC(=O)C=C[C@]4(C)[C@@]3(Cl)[C@@H](O)C[C@]2(C)[C@@]1(OC(=O)c1ccco1)C(=O)CCl` [Mometasone fuorate]: in series [3] (setting [5]), the chemical recovery was 32.8 ± 7.8%. Also, the “chemical recovery into PDMS” value in series [2] (equilibration time (d): 1) was 22.4 ± 3%; in series [2] (equilibration time (d): 3) it was 29.4 ± 3.4%; in series [2] (equilibration time (d): 6), 32.6 ± 2.6%.
With `CCCCCCCCCCN(C)C` [N,N-Dimethyldecylamine], the chemical recovery in series [3] (setting [5]) was 39.4 ± 7.1%. Further, the “chemical recovery into PDMS” value in series [2] (equilibration time (d): 6) is 0.000993 ± 0.0017%.
In the case of `CCCCC(CC)COC(=O)C(C#N)=C(c1ccccc1)c1ccccc1` (centres undefined) [Octocrylene], the chemical recovery was determined as 73.7 ± 6% in series [3] (setting [6]), 2.21 ± 0.76% in series [3] (setting [4]) and 59.8 ± 6.2% in series [3] (setting [7]). Besides, the results for the “chemical recovery into PDMS” value in series [2] (equilibration time (d): 1), in series [2] (equilibration time (d): 3) and in series [2] (equilibration time (d): 6) were 62.5 ± 6.4%, 65.5 ± 8% and 65.4 ± 1.9%, respectively.
Consider `CC(C)Oc1cc(-n2nc(C(C)(C)C)oc2=O)c(Cl)cc1Cl` [Oxadiazone], for which the results for the chemical recovery in series [3] (setting [4]) and in series [3] (setting [5]) were 43.6 ± 4.8% and 34.7 ± 5.2%, respectively. Also, the “chemical recovery into PDMS” value in series [2] (equilibration time (d): 1) was 39.1 ± 3.5%; in series [2] (equilibration time (d): 3), 40.4 ± 3.1%; in series [2] (equilibration time (d): 6) it was 37.8 ± 2.7%.
Take `O=C(O)C(F)(F)C(F)(F)C(F)(F)C(F)(F)C(F)(F)C(F)(F)F` [Perfluoroheptanoic acid]: the chemical recovery in series [3] (setting [6]) is 34.1 ± 2.9%; in series [3] (setting [4]), 27.1 ± 4.2%; in series [3] (setting [5]) it was 39.8 ± 8.7%; in series [3] (setting [7]) it was 85.3 ± 16%. Moreover, the “chemical recovery into PDMS” value in series [2] (equilibration time (d): 1) was determined as 0.0266 ± 0.023%; in series [2] (equilibration time (d): 3), 0.00647 ± 0.017%; in series [2] (equilibration time (d): 6), 0.0383 ± 0.0028%.
For `O=C(Nc1ccc(F)cc1)c1cccc(Oc2cccc(C(F)(F)F)c2)n1` [Picolinafen], the chemical recovery in series [3] (setting [4]) stood at 49.3 ± 14%; in series [3] (setting [5]) it was 28.9 ± 6%; in series [3] (setting [7]), 69.8 ± 6%. Also, the “chemical recovery into PDMS” value was found to be 50.6 ± 4.7% in series [2] (equilibration time (d): 1), 54.1 ± 5.5% in series [2] (equilibration time (d): 3) and 50.4 ± 4.1% in series [2] (equilibration time (d): 6).
`CC(=O)[C@H]1CC[C@H]2[C@@H]3CCC4=CC(=O)CC[C@]4(C)[C@H]3CC[C@]12C` [Progesterone] came in with a chemical recovery in series [3] (setting [5]) of 45.7 ± 9.4%. The “chemical recovery into PDMS” value in series [2] (equilibration time (d): 1) was 47.3 ± 3.5%; in series [2] (equilibration time (d): 3), 50.6 ± 4.3%; in series [2] (equilibration time (d): 6), 48.2 ± 0.51%.
Turning to `COC(=O)N(OC)c1ccccc1COc1ccn(-c2ccc(Cl)cc2)n1` [Pyraclostrobin], the chemical recovery in series [3] (setting [6]) turned out to be 71.5 ± 8.6%; in series [3] (setting [4]), 48 ± 6.1%; in series [3] (setting [5]) it was 36.9 ± 5%. The “chemical recovery into PDMS” value in series [2] (equilibration time (d): 1) is 46.4 ± 5.7%; in series [2] (equilibration time (d): 3), 47.9 ± 3.8%; in series [2] (equilibration time (d): 6), 46.6 ± 3.3%.
As to `CCOC(=O)c1cn2nc(OP(=S)(OCC)OCC)cc2nc1C` [Pyrazophos], the chemical recovery in series [3] (setting [6]) came to 55.7 ± 7.8%; in series [3] (setting [4]), 43 ± 3.4%; in series [3] (setting [5]), 40.2 ± 7.4%. Also, the “chemical recovery into PDMS” value in series [2] (equilibration time (d): 1) came to 39.1 ± 4.4%; in series [2] (equilibration time (d): 3), 40.5 ± 2.3%; in series [2] (equilibration time (d): 6) it was 40.1 ± 2.1%.
Turning to `CC(C)(C)c1ccc(CSc2cnn(C(C)(C)C)c(=O)c2Cl)cc1` [Pyridaben], the chemical recovery in series [3] (setting [4]) turned out to be 7.91 ± 1.1%. In addition, the results for the “chemical recovery into PDMS” value in series [2] (equilibration time (d): 1), in series [2] (equilibration time (d): 3) and in series [2] (equilibration time (d): 6) were 50.4 ± 7.5%, 49.7 ± 3.6% and 49.4 ± 2.4%, respectively.
